Assay results from patent US20190254992A1, “COMBINATIONS OF BETA-GLYCOLIPIDES AND 4-[(2-AMINO-3,5-DIBROMOPHENYL)METHYLAMINO]CYCLOHEXAN-1-OL, COMPOSITIONS AND USES THEREOF IN THE TREATMENT OF DISORDERS ASSOCIATED WITH PROTEIN MISFOLDING AND PROTEIN AGGREGATIONS” (HADASIT MEDICAL RESEARCH SERVICES & DEVELOPMENT LIMITED, priority 2016, published 2019).

Tests used:
[1] = test system: glucosylceramidase; conditions: fibroblasts from healthy controls, Gaucher patients, heterozygous GBA mutation with and without Parkinson's disease; cited from earlier work
[2] = test system: serum cytokines (IL-1α, IL-4, IFN-γ, IL-6); experiment: Serum cytokine measurement (MILLIPLEX/Luminex) in ConA immune-mediated hepatitis mice; format: in vivo, C57Bl/6 mice; conditions: oral, daily for 5 days, ConA-injected mice; for serum IL-1a: control group A 206.5; for serum IL-6: control group A 11768
Description: Male C57Bl/6 mice (12 weeks old) were obtained from Harlan Laboratories (Jerusalem, Israel) and maintained in the Animal Core of the Hadassah-Hebrew University Medical School. Mice were kept at 11-12 weeks of age and maintained in the Animal Core of the Hadassah-Hebrew University Medical School. All mice were administered standard laboratory chow and water ad libitum and kept in a 12-hour light/dark cycle. All experiments were performed in accordance with the guidelines of the Hebrew University-Hadassah Institutional Committee for Care and Use of Laboratory Animals (IACUC protocol number: MD-16-14986-3).
Four groups of mice (n=4) were studied. Mice in all groups were injected with Concanavalin A (Con A, […]). Mice in control group A were treated with PBS. Mice in group B were orally administered 6 mg of GC, per mouse daily for 5 days prior to ConA injection.
Cytokine assessment was performed by MILLIPLEX® Analytes (EMD Millipore Corporation, Missouri 63304 U.S.A.) based on the Luminex xMAP® technology for performing immunoassays on the surface of fluorescent-coded magnetic beads MagPlex®-C microspheres. Acquiring and analyzing the data were performed using the Luminex analyzer (MAGPIX®) software. Cytokines assessment was measured by mean fluorescence intensity (MFI).

[3] = test system: immune-mediated liver injury; experiment: Serum liver enzymes (ALT, AST) in ConA immune-mediated hepatitis mice; format: in vivo, C57Bl/6 mice; conditions: oral, daily for 5 days, ConA-injected mice; for AST levels: control group A 9140; for ALT levels: control group A 24040
Description: Male C57Bl/6 mice (12 weeks old) were obtained from Harlan Laboratories (Jerusalem, Israel) and maintained in the Animal Core of the Hadassah-Hebrew University Medical School. Mice were kept at 11-12 weeks of age and maintained in the Animal Core of the Hadassah-Hebrew University Medical School. All mice were administered standard laboratory chow and water ad libitum and kept in a 12-hour light/dark cycle. All experiments were performed in accordance with the guidelines of the Hebrew University-Hadassah Institutional Committee for Care and Use of Laboratory Animals (IACUC protocol number: MD-16-14986-3). Four groups of mice (n=4) were studied. Mice in all groups were injected with Concanavalin A (Con A, […]). Mice in control group A were treated with PBS. Mice in group B were orally administered 6 mg of GC, per mouse daily for 5 days prior to ConA injection. […] Serum aspartate aminotransferase (AST) and alanine aminotransferase (ALT) levels were determined with an automatic analyzer on all mice in all groups.

[4] = test system: alpha-synuclein; conditions: neuroblastoma line engineered to overexpress alpha-synuclein; cited from earlier work
[5] = test system: non-neuronopathic form of GD; conditions: patients with non-neuronopathic GD; cited from earlier work
[6] = test system: type 3 neuropathic GD; conditions: high doses, cited from earlier work

## Nc1c(Br)cc(Br)cc1CN[C@H]1CC[C@H](O)CC1 [Ambroxol, trans-4-(2-Amino-3,5-dibrombenzylamino)-cyclohexanol]
[1]
  glucosylceramidase activity: increased
  markers of oxidative stress: reduced
[2]
  IFN-γ change (in words): did not show any decrease
  serum IL-1a: 131 pg/mL
  serum IL-6: 9504 pg/mL
[3]
  AST levels: 8516 IU
  ALT levels: 16455 IU
[4]
  alpha-synuclein levels: reduces
[5]
  clinical outcome of ambroxol treatment: disease stability
[6]; 5 individuals with type 3 neuropathic GD
  subjective-functional scores and objective scores (VEP, ocular movements): substantial clinical improvement
[6]; type 3 neuropathic GD patients
  GCase activity in lymphocytes: Increased

## B-glucosylceramide [GC]
[2]
  serum IL-1a: 48 pg/mL
  serum IL-6: 984 pg/mL
[2]; control group A 643
  IFN-γ: 36 pg/mL
[3]
  AST levels: 2939 IU
  ALT levels: 4198 IU
